Values quoted from earlier work, collected in patent US20150164917A1 (VALPHARMA INTERNATIONAL S.P.A., priority 2012, published 2015).

Tested on: uterine fibrosis
Conditions: 5 mg daily oral for 6 months, compared with higher doses

## CC#C[C@]1(O)CC[C@H]2[C@@H]3CCC4=CC(=O)CCC4=C3[C@@H](c3ccc(N(C)C)cc3)C[C@@]21C [Mifepristone]
  effects in the treatment of uterine fibrosis: effects comparable with those of higher doses of Mifepristone
